Reference: the supplement of paper PMC11451515

Tests used:
Details in all cases: 48 h
NOMO1 [1] = experiment: cell viability relative to DMSO control; higher = less cytotoxic
Method in brief: (§1)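 In 1536-well plates, 5 μl of leukemia cells were seeded per well: 500 cells/well for NOMO1 or SEM and 1000 cells/well for P12-Ichikawa. Each line had first been adapted for at least four passages in each medium. Library compounds in DMSO were pin-dosed at 11 threefold concentrations between 47 μM and 0.79 nM, and CellTiter-Glo One luminescence was read after 48 h at 37°C. Viability is a per-plate percentage relative to DMSO wells, with cell-free wells as background.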

P12-Ichikawa [2] = experiment: as above
Method in brief: as §1

SEM cells [3] = experiment: as above
Method in brief: as §1

NOMO1 [4] = experiment: AUC of viability dose-response curve (% viability x log10 dose units); higher = less sensitive
Method in brief: (§2)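 Viability of medium-adapted leukemia cells was measured by CellTiter-Glo One luminescence after 48 h at 37°C with library compounds in DMSO. Doses were 11 threefold steps from 47 μM to 0.79 nM, in 1536-well plates at 500 or 1000 cells/well. Signals were normalised per plate to DMSO and cell-free wells and fitted with a four-parameter log-logistic model on log10 dose. Area under the curve was integrated by trapezoidal rule, with curves exceeding full viability scaled and failed quality-control curves removed.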

P12-Ichikawa [5] = experiment: as above
Method in brief: as §2

SEM cells [6] = experiment: as above
Method in brief: as §2

Cn1c(=O)n(-c2ccc(C(C)(C)C#N)cc2)c2c3cc(-c4cnc5ccccc5c4)ccc3ncc21
cell viability [%]
Details	NOMO1 [1]	P12-Ichikawa [2]	SEM cells [3]
HPLM + 10% dialyzed FBS, 0.000781 µM	99.4	108	94
HPLM + 10% dialyzed FBS, 0.00234 µM	99.2	120	104
HPLM + 10% dialyzed FBS, 0.00702 µM	105	113	96
HPLM + 10% dialyzed FBS, 0.0211 µM	97.5	105	86.7
HPLM + 10% dialyzed FBS, 0.0632 µM	91.2	110	82
HPLM + 10% dialyzed FBS, 0.19 µM	89.2	98	66.3
HPLM + 10% dialyzed FBS, 0.569 µM	61.1	92.1	50.5
HPLM + 10% dialyzed FBS, 1.71 µM	37.4	43.2	38.8
HPLM + 10% dialyzed FBS, 5.12 µM	41.9	18.2	28.3
HPLM + 10% dialyzed FBS, 15.4 µM	33.9	13.3	22.1
HPLM + 10% dialyzed FBS, 46.1 µM	32.2	17.6	22.3
RPMI 5 mM glucose + 10% FBS, 0.000781 µM	103	114	68
RPMI 5 mM glucose + 10% FBS, 0.00234 µM	114	108	56.2
RPMI 5 mM glucose + 10% FBS, 0.00702 µM	104	106	64.5
RPMI 5 mM glucose + 10% FBS, 0.0211 µM	102	90.6	64.3
RPMI 5 mM glucose + 10% FBS, 0.0632 µM	106	88.2	46
RPMI 5 mM glucose + 10% FBS, 0.19 µM	99.9	82.7	33.6
RPMI 5 mM glucose + 10% FBS, 0.569 µM	89.8	67.6	27.7
RPMI 5 mM glucose + 10% FBS, 1.71 µM	52.4	67.2	15
RPMI 5 mM glucose + 10% FBS, 5.12 µM	28.7	42.1	8.98
RPMI 5 mM glucose + 10% FBS, 15.4 µM	19.8	10.7	9.61
RPMI 5 mM glucose + 10% FBS, 46.1 µM	27.1	12.1	6.98
RPMI 5 mM glucose + 10% dialyzed FBS, 0.000781 µM	102	110	98.6
RPMI 5 mM glucose + 10% dialyzed FBS, 0.00234 µM	120	117	89
RPMI 5 mM glucose + 10% dialyzed FBS, 0.00702 µM	111	111	89.8
RPMI 5 mM glucose + 10% dialyzed FBS, 0.0211 µM	112	105	86.1
RPMI 5 mM glucose + 10% dialyzed FBS, 0.0632 µM	94.9	101	65.7
RPMI 5 mM glucose + 10% dialyzed FBS, 0.19 µM	73.4	82	57.9
RPMI 5 mM glucose + 10% dialyzed FBS, 0.569 µM	66.4	81.1	51.4
RPMI 5 mM glucose + 10% dialyzed FBS, 1.71 µM	49.3	57	35
RPMI 5 mM glucose + 10% dialyzed FBS, 5.12 µM	33.7	33.4	24.2
RPMI 5 mM glucose + 10% dialyzed FBS, 15.4 µM	22.6	15.3	13.2
RPMI 5 mM glucose + 10% dialyzed FBS, 46.1 µM	30.5	16.1	14.4

AUC of viability dose-response curve
Details	HPLM + 10% dialyzed FBS	RPMI 5 mM glucose + 10% FBS	RPMI 5 mM glucose + 10% dialyzed FBS
NOMO1 [4]	344	354	315
P12-Ichikawa [5]	337	315	325

CCC(=C/[C@H](C)C/C=C/C(C)=C/[C@@H](C)C(=O)[C@@H](C)[C@H](O)[C@@H](C)C/C(C)=C/C(=O)O)/C=C/[C@@H]1OC(=O)C=C[C@@H]1C
cell viability [%]
Details	NOMO1 [1]	P12-Ichikawa [2]	SEM cells [3]
HPLM + 10% dialyzed FBS, 0.000781 µM	118	110	59.9
HPLM + 10% dialyzed FBS, 0.00234 µM	115	114	88.8
HPLM + 10% dialyzed FBS, 0.00702 µM	109	116	77.7
HPLM + 10% dialyzed FBS, 0.0211 µM	107	117	79.9
HPLM + 10% dialyzed FBS, 0.0632 µM	118	118	89.2
HPLM + 10% dialyzed FBS, 0.19 µM	123	115	75.7
HPLM + 10% dialyzed FBS, 0.569 µM	125	129	62.4
HPLM + 10% dialyzed FBS, 1.71 µM	83.8	109	20.6
HPLM + 10% dialyzed FBS, 5.12 µM	4.07	6.55	5.63
HPLM + 10% dialyzed FBS, 15.4 µM	2.4	4.69	5.09
HPLM + 10% dialyzed FBS, 46.1 µM	13.2	7.83	7.74
RPMI 5 mM glucose + 10% FBS, 0.000781 µM	104	106	83
RPMI 5 mM glucose + 10% FBS, 0.00234 µM	101	119	96.4
RPMI 5 mM glucose + 10% FBS, 0.00702 µM	110	111	93.2
RPMI 5 mM glucose + 10% FBS, 0.0211 µM	99.2	127	95.3
RPMI 5 mM glucose + 10% FBS, 0.0632 µM	114	121	106
RPMI 5 mM glucose + 10% FBS, 0.19 µM	114	118	70.4
RPMI 5 mM glucose + 10% FBS, 0.569 µM	109	114	45.5
RPMI 5 mM glucose + 10% FBS, 1.71 µM	110	96.1	13
RPMI 5 mM glucose + 10% FBS, 5.12 µM	3.02	5.34	6.23
RPMI 5 mM glucose + 10% FBS, 15.4 µM	1.72	3.16	5.5
RPMI 5 mM glucose + 10% FBS, 46.1 µM	14.7	8.25	10.9
RPMI 5 mM glucose + 10% dialyzed FBS, 0.000781 µM	99.7	99.9	84
RPMI 5 mM glucose + 10% dialyzed FBS, 0.00234 µM	108	107	86
RPMI 5 mM glucose + 10% dialyzed FBS, 0.00702 µM	113	109	95.4
RPMI 5 mM glucose + 10% dialyzed FBS, 0.0211 µM	107	115	91.1
RPMI 5 mM glucose + 10% dialyzed FBS, 0.0632 µM	122	107	82.9
RPMI 5 mM glucose + 10% dialyzed FBS, 0.19 µM	120	111	77.7
RPMI 5 mM glucose + 10% dialyzed FBS, 0.569 µM	120	108	52
RPMI 5 mM glucose + 10% dialyzed FBS, 1.71 µM	90.2	91.1	18.8
RPMI 5 mM glucose + 10% dialyzed FBS, 5.12 µM	3.22	5.62	7.36
RPMI 5 mM glucose + 10% dialyzed FBS, 15.4 µM	2.11	4.96	6.69
RPMI 5 mM glucose + 10% dialyzed FBS, 46.1 µM	14.7	13.8	8.55

AUC of viability dose-response curve
Details	HPLM + 10% dialyzed FBS	RPMI 5 mM glucose + 10% FBS	RPMI 5 mM glucose + 10% dialyzed FBS
NOMO1 [4]	351	365	355
P12-Ichikawa [5]	361	355	359

CC(=O)Nc1ccc(O)cc1
AUC of viability dose-response curve
Details	NOMO1 [4]	P12-Ichikawa [5]	SEM cells [6]
HPLM + 10% dialyzed FBS	464	455	472
RPMI 5 mM glucose + 10% FBS	459	458	476
RPMI 5 mM glucose + 10% dialyzed FBS	463	470	467
